The values that follow are results of earlier work, collected in patent publication US20240156825A1, “USE OF SELECTIVE VEGFR2 AND FGFR1 INHIBITORS” (Fountain Therapeutics Inc., priority 2022, published 2024).

Read-outs that look alike come from different tables or passages of the source.

The data set has as its system any gene target. The following applies: read-out: Min IC50_μM, cited from earlier work.
The mark [1] stands for this setting: Table 2, lowest reported IC50 to any gene target.
The mark [2] stands for this setting: next lowest IC50 value to any gene target.
Where [3] appears, read: lowest reported IC50 to any gene target.
[4] abbreviates: next lowest IC50 value to any gene target, Table 3.

Consider `COc1cc(OC)cc(N(CCCN2[C@H](C)CC[C@@H]2C)c2ccc3ncc(-c4cnn(C)c4)nc3c2)c1` [compound 134135888], for which the IC50 under setting [1] is 2.51 nM.

With `Cc1n[nH]c2sc(C(N)=O)c(NC(=O)c3ccccc3Cl)c12` [compound 44405999], the IC50 under setting [2] is 9000 nM.

Turning to `COc1cc(OC)cc(N(CCNCC2CC2)c2ccc3ncc(-c4cnn(C)c4)nc3c2)c1` [compound 68208778], the IC50 under setting [1] is 3.02 nM.

Turning to `COc1cc(OC)cc(N(CC#Cc2cc(N)ccn2)c2ccc3ncc(-c4cnn(C)c4)nc3c2)c1` [compound 89447499], the IC50 under setting [1] is 2.95 nM. As to `COc1cc(OC)cc(N(CCNCCO)c2ccc3ncc(-c4cnn(C)c4)nc3c2)c1` [compound 68209464], the IC50 under setting [1] was 2.24 nM.

As for `COc1cc2ncnc(Nc3ccc(Cl)cc3F)c2cc1OC` [compound 5329006], the IC50 under setting [2] is 1000 nM. For `COc1cc(OC)cc(N(CC(O)CN2CCCCC2)c2ccc3ncc(-c4cnn(C)c4)nc3c2)c1` (stereo not shown) [compound 68209482], the IC50 under setting [3] is 2.95 nM.

For `COc1cc(F)cc(N(CCNC(C)C)c2ccc3ncc(-c4cn[nH]c4)nc3c2)c1` [compound 134153940], the IC50 under setting [1] was 2.09 nM.

Turning to `C[C@@H](Oc1ccc2[nH]nc(/C=C/c3cnn(CCO)c3)c2c1)c1c(Cl)cncc1Cl` [compound 46944259], the IC50 under setting [1] was 2.6 nM. As to `COc1cc2nccc(Oc3ccc4c(C(=O)NC5CC5)cccc4c3)c2cc1OC` [compound 11441375], the IC50 under setting [2] was 27 nM. For `COc1cc(OC)cc(N(Cc2ccccc2Cl)c2ccc3ncc(-c4cnn(C)c4)nc3c2)c1` [compound 68208812], under setting [1], the IC50 is 61.7 nM.

Take `CCCNC(=O)Nc1ccc(Oc2ncnc3cc(OC)c(OC)cc23)cc1Cl` [compound 9549295]: the IC50 under setting [4] was 1 nM. Take `COc1cc(OC)cc(N(CCNC(C)C)c2ccc3ncc(-c4cnn(C5CCN(C)CC5)c4)nc3c2)c1` [compound 134142615]: the IC50 under setting [1] is 2.95 nM. As for `CCNC(=O)c1cccc2cc(Oc3ccnc4cc(OC)c(OC)cc34)ccc12` [compound 11486459], the IC50 under setting [2] was 46 nM. In the case of `Cc1n[nH]c2sc(C(=O)NCc3ccccc3)cc12` [compound 44405941], the IC50 under setting [2] was 16000 nM. As for `COc1cc(OC)cc(N(CCCN)c2ccc3ncc(-c4cn[nH]c4)nc3c2)c1` [compound 68208813], under setting [1], the IC50 was 1.18 nM. Regarding `COc1cc(OC)cc(N(CCCN2[C@H](C)CC[C@@H]2C)c2ccc3ncc(-c4cnn(C)c4)nc3c2)c1` [compound 89447423], under setting [3], the IC50 was 3.24 nM. Consider `CNC[C@H](O)CN(c1cc(OC)cc(OC)c1)c1ccc2ncc(-c3cnn(C)c3)nc2c1` [compound 68209125], for which, under setting [3], the IC50 was 1.78 nM. Regarding `COc1cc(OC)cc(-c2cc3cnc(NCCCCCN4CCOCC4)cc3nc2NC(=O)NC(C)(C)C)c1` [compound 5330134], the IC50 under setting [3] is 0.5 nM. Turning to `COc1cc(OC)cc(N(CCNC(C)C)c2ccc3ncc(-c4cnn(C)c4)nc3c2)c1` [compound 118014709], the IC50 under setting [1] was 2.29 nM. Turning to `COc1cc(OC)cc(N(C[C@@H]2CCCN2)c2ccc3ncc(-c4cnn(C)c4)nc3c2)c1` [compound 68208803], the IC50 under setting [1] is 3.16 nM. As for `COc1cc(OC)c(Cl)c(N(CCNC(C)C)c2ccc3ncc(-c4cnn(C)c4)nc3c2)c1Cl` [compound 88888615], the IC50 under setting [1] is 9.12 nM. As to `COc1cc(OC)cc(N(CC#Cc2cnccn2)c2ccc3ncc(-c4cnn(C)c4)nc3c2)c1` [compound 89447472], the IC50 under setting [3] is 17.8 nM. On to `COc1ccc(OC)c(N(CCNC(C)C)c2ccc3ncc(-c4cnn(C)c4)nc3c2)c1` [compound 54591211], for which, under setting [1], the IC50 is 151 nM. For the molecule `COc1cc(OC)cc(N(CCN(Cc2ccc(N)cc2)C(C)C)c2ccc3ncc(-c4cnn(C)c4)nc3c2)c1` [compound 89447175], the IC50 under setting [1] was 5.89 nM. With `COc1ccc(N(C)c2ncnc3occ(C)c23)cc1` [compound 44555430], the IC50 under setting [2] was 12.3 nM. In the case of `CONC(=O)c1cc(Nc2ncnn3cc(-c4nnc(C(C)C)o4)c(C(C)C)c23)c(F)cc1F` [compound 11442803], under setting [3], the IC50 is 1 nM.

With `O=C(NC1CCCCC1)c1cc2c(-c3ccccc3)n[nH]c2s1` [compound 44406074], under setting [2], the IC50 was 11000 nM.

Turning to `Nc1ncnc2snc(-c3ccc(NC(=O)Nc4cc(C(F)(F)F)ccc4F)cc3)c12` [compound 44414779], the IC50 under setting [2] was 22 nM. Take `COc1cc(OC)cc(N(CCN2CCC(C(C)(C)O)CC2)c2ccc3ncc(-c4cnn(C)c4)nc3c2)c1` [compound 68209085]: the IC50 under setting [3] is 3.89 nM. Turning to `COC(=O)c1ccc2c(C(=Nc3ccc(N4CCC(CN5CCN(C)CC5)C4=O)cc3)c3ccccc3)c(O)[nH]c2c1` (stereo not shown) [compound 136299423], the IC50 under setting [2] was 45 nM. In the case of `COc1cc(OC)cc(N(CC#CC2(O)CCNCC2)c2ccc3ncc(-c4cnn(C)c4)nc3c2)c1` [compound 89447547], the IC50 under setting [3] was 7.08 nM.

In the case of `COc1cc2c(Nc3ccc(Cl)c(Cl)c3F)ncnc2cc1OC[C@@H]1CN2CCCC[C@@H]2C(=O)N1` [compound 57802634], the IC50 under setting [4] is 50 nM. Regarding `COc1cc2nccc(Oc3ccc4c(C(N)=O)cccc4c3)c2cc1C(N)=O` [compound 11211389], the IC50 under setting [2] is 390 nM. For `COc1cc(OC)cc(N(CCCN2CCCC2(C)C)c2ccc3ncc(-c4cnn(C)c4)nc3c2)c1` [compound 134151320], the IC50 under setting [3] is 1.91 nM. In the case of `O=C(NCc1ccccc1)c1cc2c(-c3ccccc3)n[nH]c2s1` [compound 11359538], under setting [2], the IC50 was 2000 nM. Regarding `COC(=O)C1=C(c2ccccc2)c2ccccc2C1=O` [compound 10015651], the IC50 under setting [3] was 5100 nM.

`COc1cc(OC)cc(N(CCN2CCC(O)C2)c2ccc3ncc(-c4cnn(C)c4)nc3c2)c1` (stereo not shown) [compound 134154939]: the IC50 under setting [3] is 1.82 nM. Turning to `CCN(Cc1ccccc1)c1nc(O)nc(Nc2ccc3ncsc3c2)n1` [compound 135509841], the IC50 under setting [2] is 400 nM. On to `c1ccc(-c2cnc3cncc(Nc4ccc(N5CCCCC5)cc4)c3n2)cc1` [compound 57332840], for which, under setting [2], the IC50 was 2020 nM. Turning to `COc1cc(F)cc(N(CCCN2CCCC2)c2ccc3ncc(-c4cn[nH]c4)nc3c2)c1` [compound 134140310], under setting [1], the IC50 is 1.86 nM. On to `COc1ccc(-c2ccc(NC(=O)Nc3cccc(Cl)c3)cc2)c2c(N)noc12` [compound 11429729], for which the IC50 under setting [2] was 30 nM. Regarding `CNC(=O)Cn1cc(-c2cnc3ccc(N(CCNC(C)C)c4cc(OC)cc(OC)c4)cc3n2)cn1` [compound 134132789], the IC50 under setting [1] is 3.39 nM. Take `COc1cc(OC)cc(N(CCN2CCCC2)c2ccc3ncc(-c4cn[nH]c4)nc3c2)c1` [compound 134153401]: the IC50 under setting [1] is 2.46 nM. Consider `Clc1ccc(Nc2nnc(Cc3ccncc3)c3ccccc23)cc1` [compound 151194], for which the IC50 under setting [2] is 54 nM. Consider `COc1cc(OC)cc(N(CCCN2CCC[C@H]2C)c2ccc3ncc(-c4cnn(C)c4)nc3c2)c1` [compound 134146811], for which the IC50 under setting [1] was 2.14 nM. Regarding `COc1cc(OC)c(C)c(N(CCNC(C)C)c2ccc3ncc(-c4cnn(C)c4)nc3c2)c1` [compound 134147170], under setting [1], the IC50 was 6.46 nM.

Take `COc1cc(OC)cc(N(CCNC(C)C)c2ccc3ncc(-c4cnn(C5CCNCC5)c4)nc3c2)c1` [compound 68208989]: under setting [1], the IC50 was 2.88 nM.

With `COc1cc(OC)cc(-c2cc3cnc(N)nc3n(C)c2=O)c1` [compound 44294299], the IC50 under setting [3] is 126 nM. As for `CNC(=O)c1cccc2cc(Oc3ccnc4cc(OC)c(OC)cc34)ccc12` [compound 11749561], under setting [2], the IC50 was 110 nM. Take `COc1cc(OC)cc(N(CCCN2CCCC2)c2ccc3ncc(-c4cnn(CCO)c4)nc3c2)c1` [compound 134144550]: the IC50 under setting [1] is 1.91 nM. For the molecule `COc1cc2nccc(Oc3ccc4c(C(=O)Nc5ccc(Cl)cc5)cccc4c3)c2cc1OC` [compound 24757938], under setting [2], the IC50 was 0.5 nM. For `COc1cc2nccc(Oc3ccc(NC(=O)C4(C(=O)Nc5ccc(F)cc5)CC4)cc3)c2cc1OC` [compound 25102847], the IC50 under setting [2] is 1.3 nM. `Clc1ccc(Nc2nnc(Cc3ccncc3)c3ccccc23)cc1` [compound 151193]: the IC50 under setting [2] is 77 nM.

Take `COc1cc(N(CCNC(C)C)c2ccc3ncc(-c4cnn(C)c4)nc3c2)cc2c1OCO2` [compound 68209505]: the IC50 under setting [1] was 2.88 nM.

Regarding `COc1ccc(-c2ccc(NC(=O)Nc3cccc(C(F)(F)F)c3)cc2)c2c(N)noc12` [compound 11374110], the IC50 under setting [2] is 16 nM. `COc1cc(OC)cc(N(CCN(C)C(C)C)c2ccc3ncc(-c4cnn(C)c4)nc3c2)c1` [compound 68209043]: under setting [1], the IC50 was 3.89 nM. As to `COc1cc(OC)cc(N(Cc2ncccn2)c2ccc3ncc(-c4cnn(C)c4)nc3c2)c1` [compound 68208969], the IC50 under setting [1] is 8.13 nM. For `COc1cc(CCc2cc(NC(=O)c3ccc(N4C[C@@H](C)N[C@@H](C)C4)cc3)n[nH]2)cc(OC)c1` [compound 51039095], the IC50 under setting [1] is 0.4 nM. `COc1ccc(-c2cnc3c(-c4cn[nH]c4)cnn3c2)cc1` [compound 57339386]: under setting [2], the IC50 was 16 nM. With `COc1cc(OC)cc(N(CCN2[C@@H](C)CC[C@@H]2C)c2ccc3ncc(-c4cnn(C)c4)nc3c2)c1` [compound 89447247], the IC50 under setting [3] was 3.8 nM. Turning to `COc1cc(OC)cc(N(CCNC(C)C)c2ccc3ncc(-c4cn[nH]c4)nc3c2)c1` [compound 134157816], the IC50 under setting [1] is 2.82 nM. Turning to `COc1cc(OC)cc(N(CC#Cc2nccnc2Cl)c2ccc3ncc(-c4cnn(C)c4)nc3c2)c1` [compound 89447345], under setting [1], the IC50 is 15.8 nM.

With `COc1cc(OC)cc(N(CCNC(C)C)c2ccc3ncc(-c4cnn(C)c4)nc3c2)c1` [compound 89447047], the IC50 under setting [1] is 1.74 nM. As for `CC(C)(C)NC(=O)Nc1ccc2[nH]nc(-c3nc4ccc(N5CCC(N6CCCCC6)CC5)cc4[nH]3)c2c1` [compound 135819982], the IC50 under setting [3] was 1 nM. Turning to `COc1cc(OC)cc(N(CC#Cc2cccc(CO)n2)c2ccc3ncc(-c4cnn(C)c4)nc3c2)c1` [compound 68208920], under setting [1], the IC50 was 46.8 nM.

As for `COc1cccc(N(CCNC(C)C)c2ccc3ncc(-c4cnn(C)c4)nc3c2)c1` [compound 134138612], the IC50 under setting [3] is 7.24 nM.
